Values joined by “and” are separate entries in the source; they are usually repeats but may differ in a detail not shown here. Equal entries are not always repeated.
Tested on: 425362-245-T-J1 tumor spheroids, viability % test/control
Assay: Anticancer human tumor 425362-245-T-J1 patient-derived melanoma cell line growth inhibition
Conditions: spheroids with HUVEC and MSC; for viability, T/C: stronger effect = lower value
Method in brief: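 Complex tumor spheroids combined malignant cells with endothelial cells and mesenchymal stem cells. DNA-damaging drugs and DNA repair inhibitors were tested alone and in combination, at half-log dilutions down from clinical Cmax (top 10 microM if Cmax unknown), 0.25% DMSO final.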

[1] = curve of first compound, second compound 0.003 µM
[2] = second compound 0.003 µM, first compound 0.00949 µM
[3] = second compound 0.003 µM, first compound 0.03 µM
[4] = second compound 0.003 µM, first compound 0.0949 µM
[5] = second compound 0.003 µM, first compound 0.3 µM
[6] = second compound 0.003 µM, first compound 0.949 µM
[7] = second compound 0.003 µM, first compound 3 µM
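Also: spheroids exposed to agents for 7 days.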
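For viability, T/C in this document: 100% = DMSO vehicle control viability.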

Cc1sc2c(c1C)C(c1ccc(Cl)cc1)=NC(CC(=O)Nc1ccc(O)cc1)c1nnc(C)n1-2 (stereo not drawn) + COc1cc2c(cc1O)CCNC21CSC2c3c(OC(C)=O)c(C)c4c(c3C(COC1=O)N1C(O)C3Cc5cc(C)c(OC)c(O)c5C(C21)N3C)OCO4
IC50 (curve of first compound, second compound 30 pM): 69.4 nM
IC50 (curve of first compound, second compound 94.9 pM): 67.7 nM
IC50 (curve of first compound, second compound 0.0003 µM): 11.2 nM
IC50 (curve of first compound, second compound 0.000949 µM): < 9.49 nM
IC50 [1]: < 9.49 nM
viability, T/C (second compound 30 pM, first compound 0.00949 µM): 98.3%
viability, T/C (second compound 30 pM, first compound 0.03 µM): 69.6%
viability, T/C (second compound 30 pM, first compound 0.0949 µM): 46%
viability, T/C (second compound 30 pM, first compound 0.3 µM): 14.2%
viability, T/C (second compound 30 pM, first compound 0.949 µM): 1.75%
viability, T/C (second compound 30 pM, first compound 3 µM): 1.2%
viability, T/C (second compound 94.9 pM, first compound 0.00949 µM): 94.7%
viability, T/C (second compound 94.9 pM, first compound 0.03 µM): 76.6%
viability, T/C (second compound 94.9 pM, first compound 0.0949 µM): 40.3%
viability, T/C (second compound 94.9 pM, first compound 0.3 µM): 5.16%
viability, T/C (second compound 94.9 pM, first compound 0.949 µM): 2.11%
viability, T/C (second compound 94.9 pM, first compound 3 µM): 0.76%
viability, T/C (second compound 0.0003 µM, first compound 0.00949 µM): 52.1%
viability, T/C (second compound 0.0003 µM, first compound 0.03 µM): 37.9%
viability, T/C (second compound 0.0003 µM, first compound 0.0949 µM): 17.1%
viability, T/C (second compound 0.0003 µM, first compound 0.3 µM): 3.14%
viability, T/C (second compound 0.0003 µM, first compound 0.949 µM): 0.36%
viability, T/C (second compound 0.0003 µM, first compound 3 µM): 0.19%
viability, T/C (second compound 0.000949 µM, first compound 0.00949 µM): 0.26%
viability, T/C (second compound 0.000949 µM, first compound 0.03 µM): 0.2%
viability, T/C (second compound 0.000949 µM, first compound 0.0949 µM): 0.1%
viability, T/C (second compound 0.000949 µM, first compound 0.3 µM): 0.04%
viability, T/C (second compound 0.000949 µM, first compound 0.949 µM): 0.04%
viability, T/C (second compound 0.000949 µM, first compound 3 µM): 0.14%
viability, T/C [2]: 0.25%
viability, T/C [3]: 0.27%
viability, T/C [4]: 0.18%
viability, T/C [5]: 0.17%
viability, T/C [6]: 0.18%
viability, T/C [7]: 0.29%

CNCc1ccc(-c2cc(-c3nc(-c4ccc(S(=O)(=O)C(C)C)cc4)cnc3N)on2)cc1
viability, T/C (compound 0.00949 µM): 93.8% and 103% and 111%
viability, T/C (compound 0.03 µM): 103% and 83.1% and 105%
viability, T/C (compound 0.0949 µM): 44.3% and 46.4% and 79.6%
viability, T/C (compound 0.3 µM): 8.53% and 6.26% and 5.89%
viability, T/C (compound 0.949 µM): 3.67% and 5.06% and 2.41%
viability, T/C (compound 3 µM): 0.18% and 0.4% and 0.23%
IC50 (curve of compound): 84 nM and 79.5 nM and 151 nM

Cn1ncnc1[C@H]1c2n[nH]c(=O)c3cc(F)cc(c23)N[C@@H]1c1ccc(F)cc1 + CC[C@@]1(O)C(=O)OCc2c1cc1n(c2=O)Cc2cc3c(CN(C)C)c(O)ccc3nc2-1
IC50 [1]: < 9.49 nM
IC50 (curve of first compound, second compound 0.00949 µM): < 9.49 nM
IC50 (curve of first compound, second compound 0.03 µM): < 9.49 nM
IC50 (curve of first compound, second compound 0.0949 µM): < 9.49 nM
IC50 (curve of first compound, second compound 0.3 µM): < 9.49 nM
viability, T/C [2]: 47.8%
viability, T/C [3]: 30.3%
viability, T/C [4]: 17.6%
viability, T/C [5]: 11.1%
viability, T/C [6]: 5.98%
viability, T/C [7]: 2.38%
viability, T/C (second compound 0.00949 µM, first compound 0.00949 µM): 28.2%
viability, T/C (second compound 0.00949 µM, first compound 0.03 µM): 13.9%
viability, T/C (second compound 0.00949 µM, first compound 0.0949 µM): 9.54%
viability, T/C (second compound 0.00949 µM, first compound 0.3 µM): 9.4%
viability, T/C (second compound 0.00949 µM, first compound 0.949 µM): 6.02%
viability, T/C (second compound 0.00949 µM, first compound 3 µM): 3.27%
viability, T/C (second compound 0.03 µM, first compound 0.00949 µM): 8.39%
viability, T/C (second compound 0.03 µM, first compound 0.03 µM): 8.16%
viability, T/C (second compound 0.03 µM, first compound 0.0949 µM): 7.89%
viability, T/C (second compound 0.03 µM, first compound 0.3 µM): 6.48%
viability, T/C (second compound 0.03 µM, first compound 0.949 µM): 3.96%
viability, T/C (second compound 0.03 µM, first compound 3 µM): 2.32%
viability, T/C (second compound 0.0949 µM, first compound 0.00949 µM): 4.28%
viability, T/C (second compound 0.0949 µM, first compound 0.03 µM): 3.95%
viability, T/C (second compound 0.0949 µM, first compound 0.0949 µM): 3.86%
viability, T/C (second compound 0.0949 µM, first compound 0.3 µM): 3.16%
viability, T/C (second compound 0.0949 µM, first compound 0.949 µM): 2.57%
viability, T/C (second compound 0.0949 µM, first compound 3 µM): 1.79%
viability, T/C (second compound 0.3 µM, first compound 0.00949 µM): 2.13%
viability, T/C (second compound 0.3 µM, first compound 0.03 µM): 1.9%
viability, T/C (second compound 0.3 µM, first compound 0.0949 µM): 1.79%
viability, T/C (second compound 0.3 µM, first compound 0.3 µM): 1.71%
viability, T/C (second compound 0.3 µM, first compound 0.949 µM): 1.43%
viability, T/C (second compound 0.3 µM, first compound 3 µM): 1.33%

Cn1nnc2c(C(N)=O)ncn2c1=O
viability, T/C (compound 3.16 µM): 106% [middle of 10 runs]
viability, T/C (compound 31.6 µM): 108% [middle of 10 runs]
viability, T/C (compound 100 µM): 92.1% [middle of 10 runs]
IC50 (compound alone, run of 10/17/2019): > 100000 nM

CC1COCCN1c1cc(-c2ccnn2C)c2ccnc(-c3ccn[nH]3)c2n1 (stereo not drawn)
viability, T/C (compound 0.0316 µM): 34.4% and 43.6% and 45.5%
viability, T/C (compound 0.1 µM): 13.7% and 12.7% and 17.3%
viability, T/C (compound 0.316 µM): 7.51% and 9.92% and 13.6%
viability, T/C (compound 1 µM): 6.44% and 8.46% and 7.34%
viability, T/C (compound 3.16 µM): 6.81% and 10.8% and 7.05%
viability, T/C (compound 10 µM): 8.79% and 9.71% and 7.27%
IC50 (curve of compound): < 31.6 nM

From PubChem BioAssay AID1845198 (Molecular Pharmacology Branch, DTP, NCI, 2023)
